In the assay the target is MCT1 (Homo sapiens, UniProt P53985). The experiment in a line: BCECF fluorescence lactate transport assay in MCT1-expressing BT20 cells. The class given is cell-based.

Our source for the IC50 values is PMC7933116 (Cell metabolism, 2020).

For orientation: IC50 means the concentration that gives 50% inhibition. Low values mean inhibition by little substance, high ones a need for much substance.

MCT1, sequence (P53985 whole entry): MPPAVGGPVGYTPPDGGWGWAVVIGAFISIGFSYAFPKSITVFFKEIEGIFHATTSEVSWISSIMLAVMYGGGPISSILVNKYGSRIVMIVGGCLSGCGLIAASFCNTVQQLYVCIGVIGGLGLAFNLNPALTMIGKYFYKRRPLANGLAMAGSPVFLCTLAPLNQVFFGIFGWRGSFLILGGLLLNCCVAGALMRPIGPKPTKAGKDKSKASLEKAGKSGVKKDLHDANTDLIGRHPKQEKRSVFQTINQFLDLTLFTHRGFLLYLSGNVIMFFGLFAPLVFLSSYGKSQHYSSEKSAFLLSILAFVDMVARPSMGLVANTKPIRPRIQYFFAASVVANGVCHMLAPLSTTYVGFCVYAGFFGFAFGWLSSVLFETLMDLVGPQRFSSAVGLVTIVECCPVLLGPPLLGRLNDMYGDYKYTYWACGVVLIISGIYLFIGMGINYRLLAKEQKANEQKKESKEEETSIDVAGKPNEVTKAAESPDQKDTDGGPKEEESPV

The compound `CC(C)(OCc1cc(-c2cccc(OC3CC3)c2)n(-c2ccccc2Cl)n1)C(=O)O` [VB124, 2-[[1-(2-chlorophenyl)-5-(3-cyclopropoxyphenyl)-1H-pyrazol-3-yl]methoxy]-2-methylpropanoic acid] registered an IC50 of 24 µM.
